The text below walks through data of patent US20220315554A1, “COMPOUNDS COMPRISING A […] LIGAND AND USE THEREOF” (priority 2019, published 2022).

Molecules are shown by their SMILES. Numbered stars: 1 amine (or outer) side, 2 acyl side, 3 side chain; on linkers, the order of the positions; unused ones are H or OH. Bridge positions count the residues as written; N and C are the ends. Square brackets hold non-standard residues; d marks the D form. Peptide text beside a SMILES is read from it. * marks the point of attachment. DOTA = O=C(O)CN1CCN(CC(=O)O)CCN(CC(=O)*)CCN(CC(=O)O)CC1; mXylylene = c1cc(C[*:1])cc(C[*:2])c1; 3Pal = N[C@@H](Cc1cccnc1)C(=O)O; 2Thi = N[C@@H](Cc1cccs1)C(=O)O

The target of test [1] is T1, FAP-expressing human WI-38 fibroblasts (Homo sapiens, UniProt Q12884).
T1 construct: FAP-expressing human WI-38 fibroblasts (ECACC) were cultured in EMEM; host or cells: WI-38 human fibroblasts
T1 sequence (Q12884 1-760): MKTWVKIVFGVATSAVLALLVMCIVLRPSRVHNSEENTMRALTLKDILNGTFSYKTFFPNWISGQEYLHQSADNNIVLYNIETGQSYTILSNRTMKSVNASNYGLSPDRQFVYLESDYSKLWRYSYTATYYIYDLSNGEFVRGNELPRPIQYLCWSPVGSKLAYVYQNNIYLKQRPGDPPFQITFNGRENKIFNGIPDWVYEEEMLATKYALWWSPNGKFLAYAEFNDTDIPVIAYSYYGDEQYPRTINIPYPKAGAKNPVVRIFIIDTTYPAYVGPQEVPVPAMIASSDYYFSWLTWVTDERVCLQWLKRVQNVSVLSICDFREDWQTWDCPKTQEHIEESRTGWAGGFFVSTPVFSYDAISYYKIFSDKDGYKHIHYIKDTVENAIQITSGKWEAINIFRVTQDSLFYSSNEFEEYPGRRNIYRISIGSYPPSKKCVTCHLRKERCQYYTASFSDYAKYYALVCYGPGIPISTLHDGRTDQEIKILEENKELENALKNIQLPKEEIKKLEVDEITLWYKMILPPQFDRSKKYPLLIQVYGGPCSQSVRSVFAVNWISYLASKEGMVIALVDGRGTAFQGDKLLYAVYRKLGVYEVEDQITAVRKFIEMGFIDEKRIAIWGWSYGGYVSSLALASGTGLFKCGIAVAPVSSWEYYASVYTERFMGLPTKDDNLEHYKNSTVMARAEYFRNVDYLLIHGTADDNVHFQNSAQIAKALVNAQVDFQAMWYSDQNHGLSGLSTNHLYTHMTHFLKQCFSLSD
Briefly: Competitive FACS binding assay. The settings on record: pIC50 Category (FACS), competition with 3 nM Cy5-labeled compound, WI-38 fibroblasts, 4° C., 1 hour. The method, then: Cells were analyzed in an Attune NxT flow cytometer. […]
Background: In flow cytometry, cells or beads pass a laser one at a time.

The next test concerns the target T2, Human recombinant FAP (Homo sapiens, UniProt Q12884).
T2 sequence (Q12884 1-760): T1 sequence (Q12884 1-760)
Briefly: FRET-based FAP protease activity assay. Type of test: biochemical. More on the design: purchased R&D systems 3715-SE. The conditions noted are these: pIC50 Category (Activity), recombinant human FAP, FRET substrate, 37° C.

One may read the IC50 as the concentration needed to halve the response being measured.

As to `C[C@@H](O)[C@@H]1NC(=O)[C@@H]2CCCN2C(=O)[C@@H]2CCCN2C(=O)[C@@H](NC(=O)CN2CCN(CC(=O)O)CCN(CC(=O)O)CCN(CC(=O)O)CC2)CSCc2cccc(c2)CSC[C@@H](C(=O)N[C@@H](CC(=O)O)C(=O)N[C@@H](Cc2c[nH]cn2)C(=O)N[C@@H](Cc2ccccc2)C(=O)N[C@@H](CCCNC(=N)N)C(=O)N[C@@H](CC(=O)O)C(N)=O)NC(=O)[C@H](Cc2ccccc2)NC(=O)[C@H](CCC(=O)O)NC1=O` [3BP-3174, DOTA-[Cys(3MeBn)-Pro-Pro-Thr-Glu-Phe-Cys]-Asp-His-Phe-Arg-Asp-NH2] ({DOTA}-CPPTEFCDHFRD-NH2; linker 1-7 via mXylylene), the IC50 (in test [1]; on Human recombinant FAP) was 100 to 794 nM each time.
Regarding `CSCC[C@H](NC(C)=O)C(=O)N[C@H]1CSCc2cccc(c2)CSC[C@@H](C(=O)N[C@@H](CC(=O)O)C(=O)N[C@@H](Cc2c[nH]cn2)C(=O)N[C@@H](Cc2ccccc2)C(=O)N[C@@H](CCCNC(=N)N)C(=O)N[C@@H](CC(=O)O)C(N)=O)NC(=O)[C@H](Cc2ccccc2)NC(=O)[C@H](CCC(=O)O)NC(=O)[C@H]([C@@H](C)O)NC(=O)[C@@H]2CCCN2C(=O)[C@H]2CCCN2C1=O` [3BP-3176, Ac-Met-[Cys(3MeBn)-pro-Pro-Thr-Glu-Phe-Cys]-Asp-His-Phe-Arg-Asp-NH2] (Ac-MC[dP]PTEFCDHFRD-NH2; linker 2-8 via mXylylene), the IC50 (in test [1]; at Human recombinant FAP) was 100 to 794 nM throughout.
Take `CSCC[C@H](NC(C)=O)C(=O)N[C@H]1CSCc2cccc(c2)CSC[C@@H](C(=O)N[C@@H](CC(=O)O)C(=O)N[C@@H](Cc2c[nH]cn2)C(=O)N[C@@H](Cc2ccccc2)C(=O)N[C@@H](CCCNC(=N)N)C(=O)N[C@@H](CC(=O)O)C(N)=O)NC(=O)[C@H](Cc2ccccc2)NC(=O)[C@H](CCC(=O)O)NC(=O)[C@@H]([C@H](C)O)NC(=O)[C@@H]2CCCN2C(=O)[C@@H]2CCCN2C1=O` [3BP-3178, Ac-Met-[Cys(3MeBn)-Pro-Pro-thr-Glu-Phe-Cys]-Asp-His-Phe-Arg-Asp-NH2] (Ac-MCPP[dT]EFCDHFRD-NH2; linker 2-8 via mXylylene): the IC50 (in test [1]; at Human recombinant FAP) was 10 to 79.4 nM throughout.
Take `CSCC[C@H](NC(C)=O)C(=O)N[C@H]1CSCc2cccc(c2)CSC[C@@H](C(=O)N[C@@H](CC(=O)O)C(=O)N[C@@H](Cc2c[nH]cn2)C(=O)N[C@@H](Cc2ccccc2)C(=O)N[C@@H](CCCNC(=N)N)C(=O)N[C@@H](CC(=O)O)C(N)=O)NC(=O)[C@H](Cc2ccccc2)NC(=O)[C@@H](CCC(=O)O)NC(=O)[C@H]([C@@H](C)O)NC(=O)[C@@H]2CCCN2C(=O)[C@@H]2CCCN2C1=O` [3BP-3179, Ac-Met-[Cys(3MeBn)-Pro-Pro-Thr-glu-Phe-Cys]-Asp-His-Phe-Arg-Asp-NH2] (Ac-MCPPT[dE]FCDHFRD-NH2; linker 2-8 via mXylylene): the IC50 in test [1] lay in the range of 10 to 79.4 nM; on Human recombinant FAP, 100 to 794 nM.
Taken in the same sequence, the figures for `CSCC[C@H](NC(C)=O)C(=O)N[C@H]1CSCc2cccc(c2)CSC[C@@H](C(=O)N[C@@H](CC(=O)O)C(=O)N[C@@H](Cc2c[nH]cn2)C(=O)N[C@@H](Cc2ccccc2)C(=O)N[C@@H](CCCNC(=N)N)C(=O)N[C@@H](CC(=O)O)C(N)=O)NC(=O)[C@@H](Cc2ccccc2)NC(=O)[C@H](CCC(=O)O)NC(=O)[C@H]([C@@H](C)O)NC(=O)[C@@H]2CCCN2C(=O)[C@@H]2CCCN2C1=O` [3BP-3180, Ac-Met-[Cys(3MeBn)-Pro-Pro-Thr-Glu-phe-Cys]-Asp-His-Phe-Arg-Asp-NH2] (Ac-MCPPTE[dF]CDHFRD-NH2; linker 2-8 via mXylylene) were 100 to 794 nM and 100 to 794 nM.
As for `CSCC[C@H](NC(C)=O)C(=O)N[C@H]1CSCc2cccc(c2)CSC[C@H](C(=O)N[C@@H](CC(=O)O)C(=O)N[C@@H](Cc2c[nH]cn2)C(=O)N[C@@H](Cc2ccccc2)C(=O)N[C@@H](CCCNC(=N)N)C(=O)N[C@@H](CC(=O)O)C(N)=O)NC(=O)[C@H](Cc2ccccc2)NC(=O)[C@H](CCC(=O)O)NC(=O)[C@H]([C@@H](C)O)NC(=O)[C@@H]2CCCN2C(=O)[C@@H]2CCCN2C1=O` [3BP-3182, Ac-Met-[Cys(3MeBn)-Pro-Pro-Thr-Glu-Phe-cys]-Asp-His-Phe-Arg-Asp-NH2] (Ac-MCPPTEF[dC]DHFRD-NH2; linker 2-8 via mXylylene), the half-maximal inhibitory concentration (IC50) (in test [1]; at Human recombinant FAP) was 10 to 79.4 nM in each case.
Take `CSCC[C@H](NC(C)=O)C(=O)N[C@H]1CSCc2cccc(c2)CSC[C@@H](C(=O)N[C@@H](CC(=O)O)C(=O)N[C@@H](Cc2c[nH]cn2)C(=O)N[C@@H](Cc2cccnc2)C(=O)N[C@@H](CCCNC(=N)N)C(=O)N[C@@H](CC(=O)O)C(N)=O)NC(=O)[C@H](Cc2ccccc2)NC(=O)[C@H](CCC(=O)O)NC(=O)[C@H]([C@@H](C)O)NC(=O)[C@@H]2CCCN2C(=O)[C@@H]2CCCN2C1=O` [3BP-3192, Ac-Met-[Cys(3MeBn)-Pro-Pro-Thr-Glu-Phe-Cys]-Asp-His-Mpa-Arg-Asp-NH2] (Ac-MCPPTEFCDH[3Pal]RD-NH2; linker 2-8 via mXylylene): the IC50 (in test [1]; on Human recombinant FAP) was under 10 nM each time.
In the case of `CSCC[C@H](NC(C)=O)C(=O)N[C@H]1CSCc2cccc(c2)CSC[C@@H](C(=O)N[C@@H](CC(=O)O)C(=O)N[C@@H](Cc2c[nH]cn2)C(=O)N[C@@H](Cc2cccs2)C(=O)N[C@@H](CCCNC(=N)N)C(=O)N[C@@H](CC(=O)O)C(N)=O)NC(=O)[C@H](Cc2ccccc2)NC(=O)[C@H](CCC(=O)O)NC(=O)[C@H]([C@@H](C)O)NC(=O)[C@@H]2CCCN2C(=O)[C@@H]2CCCN2C1=O` [3BP-3193, Ac-Met-[Cys(3MeBn)-Pro-Pro-Thr-Glu-Thi-Cys]-Asp-His-Phe-Arg-Asp-NH2] (Ac-MCPPTEFCDH[2Thi]RD-NH2; linker 2-8 via mXylylene), the IC50 (in test [1]; on Human recombinant FAP) was under 10 nM each time.
Take `CSCC[C@H](NC(C)=O)C(=O)N[C@H]1CSCc2cccc(c2)CSC[C@@H](C(=O)N[C@@H](C)C(=O)N[C@@H](Cc2c[nH]cn2)C(=O)N[C@@H](Cc2ccccc2)C(=O)N[C@@H](CCCNC(=N)N)C(=O)N[C@@H](CC(=O)O)C(N)=O)NC(=O)[C@H](Cc2ccccc2)NC(=O)[C@H](CCC(=O)O)NC(=O)[C@H]([C@@H](C)O)NC(=O)[C@@H]2CCCN2C(=O)[C@@H]2CCCN2C1=O` [3BP-3194, Ac-Met-[Cys(3MeBn)-Pro-Pro-Thr-Glu-Phe-Cys]-Ala-His-Phe-Arg-Asp-NH2] (Ac-MCPPTEFCAHFRD-NH2; linker 2-8 via mXylylene): the IC50 (in test [1]; at Human recombinant FAP) was 10 to 79.4 nM in each case.
For `CSCC[C@H](NC(C)=O)C(=O)N[C@H]1CSCc2cccc(c2)CSC[C@@H](C(=O)N[C@@H](CC(=O)O)C(=O)N[C@@H](C)C(=O)N[C@@H](Cc2ccccc2)C(=O)N[C@@H](CCCNC(=N)N)C(=O)N[C@@H](CC(=O)O)C(N)=O)NC(=O)[C@H](Cc2ccccc2)NC(=O)[C@H](CCC(=O)O)NC(=O)[C@H]([C@@H](C)O)NC(=O)[C@@H]2CCCN2C(=O)[C@@H]2CCCN2C1=O` [3BP-3195, Ac-Met-[Cys(3MeBn)-Pro-Pro-Thr-Glu-Phe-Cys]-Asp-Ala-Phe-Arg-Asp-NH2] (Ac-MCPPTEFCDAFRD-NH2; linker 2-8 via mXylylene), the 50% inhibitory concentration (IC50) is under 10 nM in test [1] and 10 to 79.4 nM on Human recombinant FAP.
Taken in the same sequence, the figures for `CSCC[C@H](NC(C)=O)C(=O)N[C@H]1CSCc2cccc(c2)CSC[C@@H](C(=O)N[C@@H](CC(=O)O)C(=O)N[C@@H](Cc2c[nH]cn2)C(=O)N[C@@H](Cc2ccccc2)C(=O)N[C@@H](C)C(=O)N[C@@H](CC(=O)O)C(N)=O)NC(=O)[C@H](Cc2ccccc2)NC(=O)[C@H](CCC(=O)O)NC(=O)[C@H]([C@@H](C)O)NC(=O)[C@@H]2CCCN2C(=O)[C@@H]2CCCN2C1=O` [3BP-3197, Ac-Met-[Cys(3MeBn)-Pro-Pro-Thr-Glu-Phe-Cys]-Asp-His-Phe-Ala-Asp-NH2] (Ac-MCPPTEFCDHFAD-NH2; linker 2-8 via mXylylene) were 100 to 794 nM and 100 to 794 nM.
Taken in the same sequence, the figures for `CSCC[C@H](NC(C)=O)C(=O)N[C@H]1CSCc2cccc(c2)CSC[C@@H](C(=O)N[C@@H](CC(=O)O)C(=O)N[C@@H](Cc2c[nH]cn2)C(=O)N[C@@H](Cc2ccccc2)C(=O)N[C@@H](CCCNC(=N)N)C(=O)N[C@@H](C)C(N)=O)NC(=O)[C@H](Cc2ccccc2)NC(=O)[C@H](CCC(=O)O)NC(=O)[C@H]([C@@H](C)O)NC(=O)[C@@H]2CCCN2C(=O)[C@@H]2CCCN2C1=O` [3BP-3198, Ac-Met-[Cys(3MeBn)-Pro-Pro-Thr-Glu-Phe-Cys]-Asp-His-Phe-Arg-Ala-NH2] (Ac-MCPPTEFCDHFRA-NH2; linker 2-8 via mXylylene) were under 10 nM and under 10 nM.
